From ChEMBL document CHEMBL1201862, “PubChem BioAssay data set” (2004)
Calls of active or inactive are those of the source.

Key:
[1] = target: Nonstructural protein 1 (Influenza A virus, UniProt Q194T2); type: functional, Influenza A virus (A/California/07/2009(H1N1))
[2] = target: T1, Short transient receptor potential channel 4 (Mus musculus, UniProt Q9QUQ5); assay: mouse TRPC4 channel inhibitors, dose response, cell-based, HEK293 TRPC4/mu-opioid, Fluo-4 calcium (AID 434942); type: functional;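 note: potency of inhibitors blocking the TRPC4 calcium response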
T1 sequence (Q9QUQ5 whole entry): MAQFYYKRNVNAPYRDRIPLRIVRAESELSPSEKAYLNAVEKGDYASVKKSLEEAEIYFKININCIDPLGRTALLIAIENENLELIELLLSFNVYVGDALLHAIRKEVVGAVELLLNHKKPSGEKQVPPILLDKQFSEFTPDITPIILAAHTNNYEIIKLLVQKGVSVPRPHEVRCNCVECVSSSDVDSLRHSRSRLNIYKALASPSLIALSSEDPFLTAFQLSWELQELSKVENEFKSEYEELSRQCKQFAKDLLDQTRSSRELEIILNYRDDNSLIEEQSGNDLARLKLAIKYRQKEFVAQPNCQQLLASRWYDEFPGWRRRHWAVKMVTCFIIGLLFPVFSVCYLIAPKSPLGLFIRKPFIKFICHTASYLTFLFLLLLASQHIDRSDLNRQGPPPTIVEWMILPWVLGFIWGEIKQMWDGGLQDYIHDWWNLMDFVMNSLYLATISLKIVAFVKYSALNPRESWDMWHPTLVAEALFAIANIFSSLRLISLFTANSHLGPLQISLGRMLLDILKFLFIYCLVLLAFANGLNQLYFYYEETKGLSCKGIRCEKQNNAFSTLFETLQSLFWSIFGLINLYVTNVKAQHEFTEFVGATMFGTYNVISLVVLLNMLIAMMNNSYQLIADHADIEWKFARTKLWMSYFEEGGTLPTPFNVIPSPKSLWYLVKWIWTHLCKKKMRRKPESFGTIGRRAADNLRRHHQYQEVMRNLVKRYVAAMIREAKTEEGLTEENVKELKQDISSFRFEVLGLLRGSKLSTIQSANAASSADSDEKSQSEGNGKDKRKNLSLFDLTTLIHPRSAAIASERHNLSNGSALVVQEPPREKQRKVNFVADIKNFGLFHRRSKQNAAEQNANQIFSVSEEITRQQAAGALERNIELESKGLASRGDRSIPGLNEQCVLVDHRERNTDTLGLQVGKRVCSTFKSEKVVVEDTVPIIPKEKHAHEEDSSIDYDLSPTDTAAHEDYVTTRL

[3] = target: T2, Fatty acid synthase (Homo sapiens, UniProt P49327); assay: FAS thioesterase domain inhibitors, dose response, biochemical, endpoint fluorescence intensity, uHTS hits (AID 624327); type: functional;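 note: fluorescence from hydrolysis of an O-methyl fluorescein acyl ester substrate by the enzyme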
[4] = test system: Vero; assay: Vero cell cytotoxicity, cytotoxicity control for flavivirus capping enzyme inhibitors (AID 588742); type: functional; conditions: Chlorocebus sabaeus
[5] = target: T2, Fatty acid synthase; assay: FAS thioesterase domain inhibitors, dose response, biochemical, kinetic fluorescence intensity (AID 624326); type: functional;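 note: rate of fluorescence rise from hydrolysis of a fluorogenic O-methyl fluorescein ester substrate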
[6] = target: Genome polyprotein (dengue virus type 2, UniProt P29990); assay: Dengue-2 NS5 methyltransferase inhibitors, primary screen, biochemical, confirmation dose response (AID 588689); type: functional
[7] = target: T1, Short transient receptor potential channel 4; assay: mouse TRPC4 channel activators, dose response, cell-based, HEK293 TRPC4/mu-opioid, Fluo-4 calcium (AID 434937); type: functional
[8] = test system: BJ; assay: cells; type: functional, cell-based; conditions: Homo sapiens
[9] = cytotoxicity toward DRD oncogenic fibroblasts, dose response, cell-based, non-viral oncogenic, luminescence (AID 1934); type: functional; conditions: Homo sapiens
[10] = test system: BJ; assay: cytotoxicity toward BJ-TERT-LT-ST fibroblasts, dose response, cell-based, RAS-independent, luminescence (AID 1935); type: functional; conditions: Homo sapiens;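 note: BJ fibroblasts immortalized with TERT plus LT and ST oncogenes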
[11] = test system: BJ; assay: cytotoxicity toward BJ-TERT fibroblasts, dose response, cell-based, RAS-independent, luminescence (AID 1933); type: functional; conditions: Homo sapiens
[12] = cytotoxicity in HEK-293T cells, dose response, cytotoxicity control for TCR NF-kB inhibitor project, luminescence, T-cell screen hits (AID 489026); type: functional, cell-based;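 note: cells exposed to compound about 14 hours before the viability readout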
[13] = Luminescence Cell-Based Dose Retest to Confirm Inhibitors of Cancer Stem Cells. [Related pubchem assays (depositor defined):AID2717, AID2721]; type: functional, Homo sapiens; conditions: Homo sapiens
[14] = target: Heat shock protein HSP 90-alpha (Homo sapiens, UniProt P07900); type: functional, organism-based
[15] = target: T3, Microphthalmia-associated transcription factor (Homo sapiens, UniProt O75030); assay: TRPM1 promoter luciferase signal decrease, dose response, MITF inhibitor project, cell-based, SK-MEL-5, cherry-picked, set 3 (AID 493073); type: functional
T3 sequence (O75030 whole entry): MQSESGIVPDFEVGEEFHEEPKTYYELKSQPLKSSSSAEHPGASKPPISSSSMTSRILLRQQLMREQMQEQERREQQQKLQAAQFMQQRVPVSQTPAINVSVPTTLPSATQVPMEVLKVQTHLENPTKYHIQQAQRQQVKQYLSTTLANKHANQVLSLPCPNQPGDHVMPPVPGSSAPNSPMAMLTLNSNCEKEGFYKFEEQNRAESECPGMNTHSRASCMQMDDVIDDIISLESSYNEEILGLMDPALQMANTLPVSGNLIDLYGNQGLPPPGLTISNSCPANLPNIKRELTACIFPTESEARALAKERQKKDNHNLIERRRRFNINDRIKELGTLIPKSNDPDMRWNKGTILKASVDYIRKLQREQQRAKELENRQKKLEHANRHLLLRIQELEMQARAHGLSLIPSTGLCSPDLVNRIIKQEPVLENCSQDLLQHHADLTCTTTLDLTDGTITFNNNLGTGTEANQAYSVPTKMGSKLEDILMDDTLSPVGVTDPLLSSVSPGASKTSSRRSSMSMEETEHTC

[16] = test system: Vero; assay: cells; type: functional; conditions: Chlorocebus sabaeus
[17] = cells; type: functional
[18] = cytotoxicity toward NIH3T3 fibroblasts, dose response, counter-screen, cell-based, ATP luminescence, mouse fibroblasts (AID 2010); type: functional;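 note: cells exposed to compound for about 90 hours before reading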
[19] = inhibitors of intracellular T. cruzi replication, confirmation, NIH3T3 host cells, beta-gal luminescence (AID 2044); type: functional, cell-based;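 note: intracellular parasites grown in NIH/3T3 mouse fibroblasts as host cells; luminescent beta-galactosidase reporter signal from transgenic T. cruzi replicating inside host cells; inhibitors lower the luminescence signal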
[20] = growth suppression of beta-catenin-knockout colon cells, dose response, cell-based, HCT116, human colon tumor (AID 1045); type: functional;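 note: HCT116 colon tumor cells with beta catenin knocked out; cells exposed to compound for 60 hours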
[21] = target: T4, Heat shock factor protein 1 (Mus musculus, UniProt P38532); assay: HSF1 potentiators in luciferase reporter cells, confirmation, cell-based, NIH3T3, luminescence, dose retest (AID 435004); type: functional;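 note: stress induced by proteasome inhibitor MG132 added 30 min after compound; luciferase reporter driven by HSF1 response element in NIH3T3 cells; actives raise luminescence as potentiators of the MG132 stress response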
T4 sequence (P38532 whole entry): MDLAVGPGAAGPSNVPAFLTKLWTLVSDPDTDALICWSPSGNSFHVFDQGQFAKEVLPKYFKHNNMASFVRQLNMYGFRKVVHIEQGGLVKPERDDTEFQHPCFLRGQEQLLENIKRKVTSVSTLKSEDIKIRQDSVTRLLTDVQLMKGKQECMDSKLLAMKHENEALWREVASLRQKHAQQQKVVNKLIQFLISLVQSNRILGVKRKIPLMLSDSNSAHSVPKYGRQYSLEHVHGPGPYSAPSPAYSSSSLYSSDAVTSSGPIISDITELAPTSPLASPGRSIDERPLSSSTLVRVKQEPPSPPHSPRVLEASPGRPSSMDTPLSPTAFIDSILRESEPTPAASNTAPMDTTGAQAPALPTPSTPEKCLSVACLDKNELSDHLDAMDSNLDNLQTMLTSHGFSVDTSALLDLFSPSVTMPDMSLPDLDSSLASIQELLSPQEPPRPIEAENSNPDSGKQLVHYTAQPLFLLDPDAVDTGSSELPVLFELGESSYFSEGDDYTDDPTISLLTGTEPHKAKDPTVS

[22] = growth suppression of PTEN-null colon cells, dose response, cell-based, HCT116 PTEN knockout (AID 1047); type: functional;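 note: HCT116 colon tumor cells with PTEN knocked out; cells exposed to compound for 60 hours before readout; potency for loss of cell viability measured by luminescence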
[23] = test system: INS1; assay: beta cell apoptosis inhibitors, cytokine rescue, dose response, luminescence, retest (AID 449756); type: functional, cell-based; conditions: Rattus norvegicus;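 note: cell death triggered by IL-1 beta plus TNF-alpha plus IFN-gamma mixture; protective hits raise ATP signal compared with cytokine alone wells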
[24] = target: Cytochrome P450 2C19 (Homo sapiens, UniProt P33261); assay: Cytochrome panel assay with activity outcomes. Panel member name: p450-cyp2c19 Compounds with AC50 equal or less than 10 uM are considered active; type: functional; conditions: read-out: AC50
[25] = target: Cytochrome P450 2C9 (Homo sapiens, UniProt P11712)
Chain of Cytochrome P450 2C9 (P11712 whole entry): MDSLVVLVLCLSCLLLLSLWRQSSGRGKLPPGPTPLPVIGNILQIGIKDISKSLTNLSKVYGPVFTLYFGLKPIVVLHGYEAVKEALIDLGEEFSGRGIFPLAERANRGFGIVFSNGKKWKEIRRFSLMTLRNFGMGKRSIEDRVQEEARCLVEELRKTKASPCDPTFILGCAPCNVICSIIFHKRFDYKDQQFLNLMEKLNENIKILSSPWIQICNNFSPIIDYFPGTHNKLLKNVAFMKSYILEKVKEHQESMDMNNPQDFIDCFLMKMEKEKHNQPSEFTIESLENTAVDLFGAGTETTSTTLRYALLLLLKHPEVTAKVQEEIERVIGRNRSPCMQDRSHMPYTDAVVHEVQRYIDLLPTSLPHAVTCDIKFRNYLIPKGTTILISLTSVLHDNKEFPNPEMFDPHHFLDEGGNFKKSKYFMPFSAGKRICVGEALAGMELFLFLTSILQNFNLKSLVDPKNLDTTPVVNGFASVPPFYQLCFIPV

Chain of Nonstructural protein 1 (Q194T2 whole entry): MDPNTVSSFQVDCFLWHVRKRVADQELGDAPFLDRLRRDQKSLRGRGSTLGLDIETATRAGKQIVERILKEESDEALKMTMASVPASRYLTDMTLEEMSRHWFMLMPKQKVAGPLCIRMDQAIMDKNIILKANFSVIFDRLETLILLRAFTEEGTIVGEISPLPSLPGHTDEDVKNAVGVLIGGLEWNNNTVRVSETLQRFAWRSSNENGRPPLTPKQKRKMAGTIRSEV
T2 sequence (P49327 whole entry, the tested form may be a part): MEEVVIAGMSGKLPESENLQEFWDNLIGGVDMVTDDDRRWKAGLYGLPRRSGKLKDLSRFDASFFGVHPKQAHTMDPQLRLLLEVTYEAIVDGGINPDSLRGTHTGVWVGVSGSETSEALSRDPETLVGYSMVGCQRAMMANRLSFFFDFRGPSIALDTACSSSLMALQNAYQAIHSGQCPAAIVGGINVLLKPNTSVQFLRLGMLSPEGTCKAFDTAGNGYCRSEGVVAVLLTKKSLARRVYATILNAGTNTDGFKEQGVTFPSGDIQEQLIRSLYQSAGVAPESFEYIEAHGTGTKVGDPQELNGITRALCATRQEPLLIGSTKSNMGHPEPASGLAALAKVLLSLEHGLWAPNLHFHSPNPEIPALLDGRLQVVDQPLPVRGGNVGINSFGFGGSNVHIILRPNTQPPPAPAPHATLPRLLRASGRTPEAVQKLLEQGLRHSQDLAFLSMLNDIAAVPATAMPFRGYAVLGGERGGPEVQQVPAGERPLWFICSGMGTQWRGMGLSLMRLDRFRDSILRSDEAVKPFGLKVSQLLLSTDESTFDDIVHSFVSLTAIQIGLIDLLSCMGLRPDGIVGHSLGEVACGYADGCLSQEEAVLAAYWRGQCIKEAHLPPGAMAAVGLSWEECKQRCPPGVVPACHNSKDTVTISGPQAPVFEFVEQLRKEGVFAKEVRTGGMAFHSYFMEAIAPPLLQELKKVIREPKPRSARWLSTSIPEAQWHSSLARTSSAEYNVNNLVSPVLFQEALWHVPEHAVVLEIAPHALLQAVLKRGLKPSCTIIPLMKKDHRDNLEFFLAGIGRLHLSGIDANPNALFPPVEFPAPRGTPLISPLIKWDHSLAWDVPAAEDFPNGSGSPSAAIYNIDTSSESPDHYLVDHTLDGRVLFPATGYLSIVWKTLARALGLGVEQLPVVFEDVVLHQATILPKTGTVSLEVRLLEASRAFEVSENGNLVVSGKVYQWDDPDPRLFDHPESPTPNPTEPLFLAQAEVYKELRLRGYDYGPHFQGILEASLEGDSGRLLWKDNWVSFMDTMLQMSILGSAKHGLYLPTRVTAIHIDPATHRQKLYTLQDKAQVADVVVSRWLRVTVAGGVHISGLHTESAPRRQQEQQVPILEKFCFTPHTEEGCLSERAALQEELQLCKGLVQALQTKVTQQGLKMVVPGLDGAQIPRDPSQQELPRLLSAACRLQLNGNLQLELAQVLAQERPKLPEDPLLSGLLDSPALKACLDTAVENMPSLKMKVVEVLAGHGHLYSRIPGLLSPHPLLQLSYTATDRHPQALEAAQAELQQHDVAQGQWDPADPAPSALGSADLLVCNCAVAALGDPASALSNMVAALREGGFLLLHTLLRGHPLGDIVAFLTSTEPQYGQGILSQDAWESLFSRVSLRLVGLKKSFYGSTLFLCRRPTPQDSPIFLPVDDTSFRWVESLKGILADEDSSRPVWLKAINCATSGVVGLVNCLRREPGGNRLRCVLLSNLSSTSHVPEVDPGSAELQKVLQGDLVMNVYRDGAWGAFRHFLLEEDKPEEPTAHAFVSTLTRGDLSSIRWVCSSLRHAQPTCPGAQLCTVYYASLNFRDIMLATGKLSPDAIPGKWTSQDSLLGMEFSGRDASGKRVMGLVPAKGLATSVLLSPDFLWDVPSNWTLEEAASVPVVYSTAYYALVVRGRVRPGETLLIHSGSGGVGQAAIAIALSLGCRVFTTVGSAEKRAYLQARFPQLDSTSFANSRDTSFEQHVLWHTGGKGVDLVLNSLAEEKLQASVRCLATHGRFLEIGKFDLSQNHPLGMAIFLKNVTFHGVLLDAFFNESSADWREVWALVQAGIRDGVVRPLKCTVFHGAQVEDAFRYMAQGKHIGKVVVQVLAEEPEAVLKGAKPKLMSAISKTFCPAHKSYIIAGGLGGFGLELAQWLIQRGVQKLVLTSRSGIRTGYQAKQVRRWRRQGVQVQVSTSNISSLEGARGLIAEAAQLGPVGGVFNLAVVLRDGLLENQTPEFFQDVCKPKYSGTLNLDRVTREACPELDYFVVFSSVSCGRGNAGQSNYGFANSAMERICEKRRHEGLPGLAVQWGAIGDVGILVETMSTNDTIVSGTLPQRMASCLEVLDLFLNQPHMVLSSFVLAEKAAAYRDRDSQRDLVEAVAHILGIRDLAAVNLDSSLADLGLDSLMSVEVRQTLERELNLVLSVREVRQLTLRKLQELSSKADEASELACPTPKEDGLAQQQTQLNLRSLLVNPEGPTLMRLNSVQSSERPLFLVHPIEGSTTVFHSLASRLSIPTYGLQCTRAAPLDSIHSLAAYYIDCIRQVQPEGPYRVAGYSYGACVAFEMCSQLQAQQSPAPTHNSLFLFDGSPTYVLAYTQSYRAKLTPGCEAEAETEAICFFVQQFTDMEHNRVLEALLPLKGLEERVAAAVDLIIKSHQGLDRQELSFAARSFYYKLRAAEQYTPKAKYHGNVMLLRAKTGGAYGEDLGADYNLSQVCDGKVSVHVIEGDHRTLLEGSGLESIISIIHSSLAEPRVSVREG
Chain of Cytochrome P450 2C19 (P33261 whole entry): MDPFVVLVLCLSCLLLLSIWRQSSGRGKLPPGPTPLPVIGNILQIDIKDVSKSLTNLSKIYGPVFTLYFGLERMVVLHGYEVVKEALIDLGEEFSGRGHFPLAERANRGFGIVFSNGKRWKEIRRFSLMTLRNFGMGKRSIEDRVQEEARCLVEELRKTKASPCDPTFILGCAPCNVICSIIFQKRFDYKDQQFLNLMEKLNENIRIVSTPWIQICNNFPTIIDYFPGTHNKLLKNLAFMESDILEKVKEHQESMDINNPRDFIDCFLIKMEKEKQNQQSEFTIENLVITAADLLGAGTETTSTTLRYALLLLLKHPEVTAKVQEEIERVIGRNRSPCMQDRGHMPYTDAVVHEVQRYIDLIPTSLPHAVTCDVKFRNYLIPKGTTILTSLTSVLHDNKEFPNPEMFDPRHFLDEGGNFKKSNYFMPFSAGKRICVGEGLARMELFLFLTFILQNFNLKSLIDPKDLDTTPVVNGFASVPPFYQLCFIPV
Chain of Genome polyprotein (P29990 2492-3391 limits assumed): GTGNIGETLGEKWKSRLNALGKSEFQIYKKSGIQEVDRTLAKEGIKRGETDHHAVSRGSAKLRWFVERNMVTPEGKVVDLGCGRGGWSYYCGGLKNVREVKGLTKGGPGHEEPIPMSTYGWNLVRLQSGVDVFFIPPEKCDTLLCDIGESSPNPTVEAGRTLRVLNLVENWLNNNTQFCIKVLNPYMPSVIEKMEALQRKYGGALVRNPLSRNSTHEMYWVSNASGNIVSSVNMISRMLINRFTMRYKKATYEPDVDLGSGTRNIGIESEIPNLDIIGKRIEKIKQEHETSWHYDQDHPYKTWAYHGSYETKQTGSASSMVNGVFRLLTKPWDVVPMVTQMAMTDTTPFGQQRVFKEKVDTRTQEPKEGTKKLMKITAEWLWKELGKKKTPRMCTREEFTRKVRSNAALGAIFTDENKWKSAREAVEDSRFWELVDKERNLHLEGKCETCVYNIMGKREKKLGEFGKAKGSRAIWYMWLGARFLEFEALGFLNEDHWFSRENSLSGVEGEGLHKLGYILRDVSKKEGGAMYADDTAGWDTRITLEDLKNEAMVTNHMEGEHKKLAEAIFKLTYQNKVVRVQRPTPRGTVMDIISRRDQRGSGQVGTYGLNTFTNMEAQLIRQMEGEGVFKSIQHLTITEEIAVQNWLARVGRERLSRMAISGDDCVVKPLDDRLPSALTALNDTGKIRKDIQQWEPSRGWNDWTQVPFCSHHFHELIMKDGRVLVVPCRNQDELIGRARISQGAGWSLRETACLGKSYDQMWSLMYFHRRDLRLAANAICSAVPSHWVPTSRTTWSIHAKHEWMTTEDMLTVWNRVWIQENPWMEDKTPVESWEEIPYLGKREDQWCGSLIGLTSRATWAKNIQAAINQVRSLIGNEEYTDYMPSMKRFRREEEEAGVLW

With `O=C(CN1CC(=O)Oc2ccccc21)NCc1ccco1` the IC50 [1] was 6.58 µM (active).

In the case of `CCCc1nc2oc3c(NCCN(C)C)ncnc3c2c2c1CCCC2`, the EC50 [2] is reported as 1.68 µM (active).

In the case of `Cc1ccc(S(=O)(=O)N2[C@@H](c3ccc(C(C)(C)C)cc3)C(C(=O)O)=CC[C@H]2c2ccc(Cl)cc2)cc1`, the IC50 [3] is reported as 10.9 µM (active), the CC50 [4] is reported as > 40 µM (active) and the IC50 [5] is reported as 11.3 µM (active). For the same compound, the IC50 [6] was 39.6 µM (active).

With `CCOC(=O)C1(CC2CC2)CCN(Cc2ccc(O)c(Cl)c2)CC1` the EC50 [7] was 0.841 µM (active) and the EC50 [2] was 0.376 µM (active).

For `CCCCNC(=Nc1ccc(Cl)cc1)c1cccnc1`, the EC50 [2] was 7.5 µM (active).

With `OC1(c2ccccc2)C[N+](c2ccccc2)=C2SCCN21` (stereo unspecified) the EC50 [7] was 1.88 µM (active) and the EC50 [2] was 1.5 µM (active).

In the case of `Cc1ccc(COC(=O)c2cc([N+](=O)[O-])ccc2N2CCOCC2)cc1`, the IC50 [3] is reported as 10.3 µM (active), the EC50 [8] is reported as 11 µM (inconclusive) and the EC50 [9] is reported as 0.529 µM (inconclusive). For the same compound, the EC50 [10] was 0.127 µM (inconclusive), the EC50 [11] was 0.223 µM (active) and the IC50 [5] was 9.01 µM (active). For the same compound, the IC50 [12] was > 80 µM (inactive).

For `COc1ccc(C(C)(C)C)cc1NC(=O)Nc1ccc2c(c1)OCO2`, the AC50 [13] was 6.11 µM (active) and the AC50 [14] was 7.91 µM (active).

In the case of `COc1ccc(Br)cc1C(C[N+](=O)[O-])c1c(N)n(C)c(=O)n(C)c1=O` (stereo unspecified), the AC50 [13] is reported as 3.46 µM (active), the AC50 [15] is reported as 8.73 µM (active) and the CC50 [16] is reported as 10.5 µM (active).

In the case of `COc1ccc(N2CCN(C(=O)c3cccc(Cn4cc(Cl)cn4)c3)CC2)cc1`, the IC50 [1] is reported as > 100 µM (active).

In the case of `CCOc1ccccc1NS(=O)(=O)c1ccc(-c2cnc(C3CC3)o2)cc1`, the IC50 [12] is reported as > 80 µM (inactive).

For `O=C(COC(=O)CCN1C(=O)/C(=C\C=C\c2ccccc2)SC1=S)Nc1cc(F)ccc1F`, the IC50 [17] was 26.4 µM (active) and the AC50 [15] was 7.49 µM (active).

For `Cc1cc(C)cc(Nc2c([N+](=O)[O-])nn(-c3ccc(Cl)cc3)[n+]2[O-])c1`, the IC50 [1] was > 100 µM (active), the EC50 [18] was > 60 µM (not active) and the EC50 [19] was 0.387 µM (active).

For `Cc1ccc(NS(=O)(=O)c2ccc(N3CCN(c4ccc(O)cc4)CC3)c([N+](=O)[O-])c2)c(C)c1`, the AC50 [14] was 4.4 µM (active).

In the case of `Cc1ccc(-c2cc(C(=O)N3N=C(C(F)F)CC3(O)C(F)F)c3ccccc3n2)cc1C` (stereo unspecified), the EC50 [20] is reported as 39.4 µM (active), the EC50 [21] is reported as 188 µM (active) and the AC50 [13] is reported as 4.73 µM (active). For the same compound, the EC50 [18] was > 30 µM (not active), the EC50 [22] was 38.6 µM (active) and the EC50 [19] was 2.45 µM (active). For the same compound, the AC50 [14] was 6.22 µM (active).

In the case of `CCN(C(=O)c1c(-c2ccccc2Cl)noc1C)C1CCCCC1`, the EC50 [2] is reported as 9.44 µM (active).

For `CC(C(=O)N(C)C1CCS(=O)(=O)C1)N1C(=O)/C(=C/c2ccco2)SC1=S` (stereo unspecified), the CC50 [4] was 35.4 µM (active).

For `Cc1cc(C(C)(C)C)cc(C)c1C[n+]1ccc2ccccc2c1`, the AC50 [23] was 1.45 µM (active) and the IC50 [12] was > 80 µM (inactive).

For `CCOC(=O)CC1=NN(c2ccccc2)C(=O)/C1=C\c1ccc(N(C)C)cc1`, the IC50 [1] was 15.7 µM (active).

With `COc1ccc(SN=C2C(C)=CC(=O)C=C2C)cc1` the AC50 [14] was 6.51 µM (active).

With `Cc1cccc(Nc2nc(N)c([N+](=O)[O-])c(N3CCCC(C)C3)n2)c1` (stereo unspecified) the AC50 [14] was 4.6 µM (active).

For `O=C(Nc1ccc(OC(F)(F)F)cc1)c1n[nH]cc1[N+](=O)[O-]`, the AC50 [15] was 0.601 µM (active).

For `O=C(Nc1ccccc1N1CCOCC1)c1ccc([N+](=O)[O-])s1`, the AC50 [15] was 12.3 µM (active) and the AC50 [14] was 7.97 µM (active).

With `C[C@@]12C(=O)Nc3ccc(F)cc3C(=O)N1[C@H]1c3ccccc3OC[C@@H]1[C@@H]2c1ccccc1` the AC50 [14] was 5.82 µM (active).

With `COc1ccc2c(c1)[C@H]1[C@H](CO2)[C@H](c2ccccc2)[C@]2(C)C(=O)Nc3ccc(Cl)cc3C(=O)N12` the AC50 [14] was 3.14 µM (active).

In the case of `S=c1sscc1-c1ccccc1`, the IC50 [1] is reported as 32.7 µM (active).

In the case of `O=c1c2c(-c3ccccc3)csc2ncn1/N=C/c1cccc([N+](=O)[O-])c1O`, the EC50 [7] is reported as 9.44 µM (active) and the EC50 [2] is reported as 10.6 µM (active).

For `Cc1cccn2c(=O)c(/C=N/O)c(N3CCCC3)nc12`, the AC50 [24] was 31.6 µM (inconclusive), the EC50 [2] was 1.88 µM (active) and the AC50 [25] was “inconclusive”.
